Results published in the NIST ThermoML archive (doi:10.1016/j.jct.2010.11.017).

Assay: mn = molality of the nth substance listed, in mol/kg
Conditions: 101 kPa, Liquid; for viscosity: Capillary tube (Ostwald / Ubbelohde) method; for speed of sound: Frequency=3 MHz, Linear variable-path acoustic interferometer; for mass density: Pycnometric method

N[C@@H](Cc1c[nH]cn1)C(=O)O [L-histidine] + O
Conditions | mass density [kg/m3] | speed of sound [m/s] | viscosity [mPa·s]
293.15 K, m1 = 0.0199 | 999.39 | 1488.1 | 1.014
293.15 K, m1 = 0.0399 | 1000.54 | 1491.8 | 1.024
293.15 K, m1 = 0.0599 | 1001.69 | 1494.5 | 1.035
293.15 K, m1 = 0.0799 | 1002.84 | 1496.5 | 1.045
293.15 K, m1 = 0.1 | 1003.99 | 1497.4 | 1.056
293.15 K, m1 = 0.1199 | 1005.14 | 1497.5 | 1.066
293.15 K, m1 = 0.14 | 1006.29 | 1496.5 | 1.077
293.15 K, m1 = 0.16 | 1007.44 | 1494.8 | 1.087
298.15 K, m1 = 0.0199 | 998.22 | 1501.1 | 0.9001
298.15 K, m1 = 0.0399 | 999.37 | 1504.4 | 0.9083
298.15 K, m1 = 0.0599 | 1000.52 | 1506.8 | 0.9164
298.15 K, m1 = 0.0799 | 1001.68 | 1508.1 | 0.925
298.15 K, m1 = 0.1 | 1002.83 | 1508.6 | 0.933
298.15 K, m1 = 0.1199 | 1003.98 | 1507.9 | 0.9411
298.15 K, m1 = 0.14 | 1005.13 | 1506.5 | 0.95
298.15 K, m1 = 0.16 | 1006.28 | 1504.2 | 0.9583
303.15 K, m1 = 0.0199 | 996.83 | 1512.3 | 0.8052
303.15 K, m1 = 0.0399 | 997.99 | 1515.1 | 0.8119
303.15 K, m1 = 0.0599 | 999.14 | 1517 | 0.8187
303.15 K, m1 = 0.0799 | 1000.3 | 1517.7 | 0.8256
303.15 K, m1 = 0.1 | 1001.46 | 1518 | 0.8318
303.15 K, m1 = 0.1199 | 1002.61 | 1516.4 | 0.8383
303.15 K, m1 = 0.14 | 1003.76 | 1514.2 | 0.8451
303.15 K, m1 = 0.16 | 1004.91 | 1511.5 | 0.8513
308.15 K, m1 = 0.0199 | 995.23 | 1523.3 | 0.7255
308.15 K, m1 = 0.0399 | 996.39 | 1525.7 | 0.7309
308.15 K, m1 = 0.0599 | 997.55 | 1527.1 | 0.7362
308.15 K, m1 = 0.0799 | 998.71 | 1527.6 | 0.7415
308.15 K, m1 = 0.1 | 999.87 | 1527.2 | 0.7464
308.15 K, m1 = 0.1199 | 1001.02 | 1525.5 | 0.7515
308.15 K, m1 = 0.14 | 1002.19 | 1522.8 | 0.7568
308.15 K, m1 = 0.16 | 1003.34 | 1519.8 | 0.762
313.15 K, m1 = 0.0199 | 993.41 | 1529.9 | 0.6581
313.15 K, m1 = 0.0399 | 994.58 | 1531.9 | 0.6623
313.15 K, m1 = 0.0599 | 995.74 | 1532.8 | 0.6665
313.15 K, m1 = 0.0799 | 996.91 | 1533 | 0.6705
313.15 K, m1 = 0.1 | 998.08 | 1532.2 | 0.6745
313.15 K, m1 = 0.1199 | 999.23 | 1530.3 | 0.6788
313.15 K, m1 = 0.14 | 1000.4 | 1527.3 | 0.683
313.15 K, m1 = 0.16 | 1001.56 | 1523.7 | 0.6869
318.15 K, m1 = 0.0199 | 991.41 | 1535.7 | 0.6018
318.15 K, m1 = 0.0399 | 992.58 | 1537.3 | 0.605
318.15 K, m1 = 0.0599 | 993.75 | 1538 | 0.6082
318.15 K, m1 = 0.0799 | 994.92 | 1537.6 | 0.6114
318.15 K, m1 = 0.1 | 996.1 | 1536.3 | 0.6148
318.15 K, m1 = 0.1199 | 997.26 | 1534.1 | 0.6175
318.15 K, m1 = 0.14 | 998.44 | 1530.5 | 0.6208
318.15 K, m1 = 0.16 | 999.6 | 1526.5 | 0.6238
